Laboratory results: patent publication US20140271767A1, “BIOCOMPATIBLE HYDROGEL POLYMER MATRIX FOR DELIVERY OF CELLS” (Medicus Biosciences LLC, priority 2013, published 2014)

Assay: Drug elution from polymer (UV-Vis)
Assay type: physicochemical
Conditions: within the first three days; Nolvasan polymer, 2% chlorhexidine dose (50 mg), 2 mL PBS per 1 g polymer, 37° C.
Experimental: A Thermo Scientific GENESYS 10S UV-Vis spectrophotometer was used to quantify the release of various drugs from several polymers. First, the reference drug or drug solution was dissolved in an appropriate solvent. Typically, phosphate buffered saline (PBS), ethanol or dimethylsulfoxide (DMSO) were used as the solvent. Next, the optimal absorption peak for identifying and quantifying the drug was determined by performing a scan of the drug solution between 200 and 1000 nm. With the absorption peak selected, a reference curve was established by measuring the peak absorbance for various concentrations of the drug. […]
Elution samples were collected daily by decanting the PBS solution from the polymer. The volume of sample collected was recorded. […] The elution sample was analyzed by first diluting the sample in the appropriate solvent using analytical pipettes such that the measured absorbance was in the range determined by the reference curve. The dilution factor was recorded. The drug concentration was calculated from the measured absorbance via the reference curve and the dilution factor. The drug amount was calculated by multiplying the drug concentration with the sample volume. The percent elution for that day was calculated by dividing the drug amount by the total amount of drug administered. […]

chlorhexidine released from polymer: Almost half
SMILES: [H]/N=C(\N/C(=N/[H])NCCCCCCNC(=N)NC(=N)Nc1ccc(Cl)cc1)Nc1ccc(Cl)cc1 [chlorhexidine]
